Patent US6187755A, “Benzylmaltosides as inhibitors of smooth muscle cell proliferation” (American Home Products Corporation, priority 1999, dated 2001)

What was measured:
[1] = test system: Porcine Smooth Muscle Cell; assay: Porcine smooth muscle cell antiproliferation, 3H thymidine incorporation; assay type: cell-based; settings: Sus scrofa, growth factor or serum stimulated, 24-36 h at 37° C., compound added with 3H thymidine and serum / growth factor
Protocol: Effects of Compounds on Cell Proliferation Using ^3 H Thymidine Incorporation
Human and porcine smooth muscle cells were tested in early passage (generally passage 3-7) at sub-confluent conditions. Cultures were grown in 16 mm (24 well) multi-well culture dishes in medium 199 supplemented with 10% fetal bovine serum and 2% antibiotic / antimycotic. At sub-confluence, the cells were placed in a defined serum free medium (AIM-V; Gibco) for 24-48 h prior to initiating the experimental protocol.
Compounds were added to each well at 50 fold dilution (20 AL / well) and the plates were incubated for 24-36 h at 37° C. in 5% CO2. Compounds were initially dissolved in 50% ethanol and serially diluted into media. Compounds were routinely evaluated at concentrations from 1 to 100 μM. As a control, grade II porcine intestinal mucosal heparin (sodium salt) was routinely evaluated in all cell preparations at concentrations from 0.1 to 100 μg/mL.
At the completion of the test procedure, plates were placed on ice, washed three times with ice cold phosphate buffered saline (PBS) and incubated in ice cold 10% trichloroacetic acid (TCA) got 30 min to remove acid soluble proteins. Solution was transferred to scintillation vials containing 0.4 N HCl (500 μL/ vial to neutralize NaOH) and each well was rinsed two times with water (500 μL) for a total volume of 2 mL / vial.
Data was obtained, in triplicate, for both control and experimental samples. Control (100%) data was obtained from maximally stimulated cells, as the result of growth factor or serum stimulation. Experimental data was obtained from cells maximally stimulated with growth factor or serum and treated with compound. Data are expressed as an IC50 in Table I below.

endothelial cell = settings: literature (Castellot 1987); cited from earlier work
smooth muscle cell (SMC) = settings: literature; cited from earlier work
[2] = literature (Reilly 1993); cited from earlier work

Row | Compound | IC50 [1] [nM] | also measured
1 | CC(=O)Nc1cc(CO[C@@H]2O[C@H](Cn3cnc([N+](=O)[O-])c3)[C@@H](O[C@H]3O[C@@H]4COC(c5ccccc5)O[C@H]4[C@H](O)[C@H]3O)[C@H](O)[C@H]2O)ccc1C (stereo partly drawn) [Example 1, N-(5-{[4',6'-O-Benzylidene-6-deoxy-6-(4-nitro-1H-imidazol-1-yl)-β-D-maltosyl-oxy]-methyl}-2-methyl-phenyl)-acetamide] | 11000 | –
2 | CC(=O)Nc1cc(CO[C@@H]2O[C@H](Cn3cnc([N+](=O)[O-])c3)[C@@H](O[C@H]3O[C@@H]4COC(c5ccccc5)O[C@H]4[C@H](OC(C)=O)[C@H]3OC(C)=O)[C@H](OC(C)=O)[C@H]2OC(C)=O)ccc1Cl (stereo partly drawn) [Example 2, N-(5-{[2,3,2',3'-Tetra-O-acetyl-4',6'-O-benzylidene-6-deoxy-6-(4-nitro-1 H-imidazol-1-yl)-β-D-maltosyl]-oxy-methyl}-2-chloro-phenyl)-acetamide] | 807 | –
3 | CC(=O)Nc1cc(CO[C@@H]2O[C@H](Cn3cnc([N+](=O)[O-])c3)[C@@H](O[C@H]3O[C@@H]4COC(c5ccccc5)O[C@H]4[C@H](O)[C@H]3O)[C@H](O)[C@H]2O)ccc1Cl (stereo partly drawn) [Example 3, N-(5-{[4',6'-O-Benzylidene-6-deoxy-6-(4-nitro-1H-imidazol-1-yl)-β-D-maltosyl]-oxy-methyl}-2-chloro-phenyl)-acetamide] | 1850 | –
4 | CC(=O)Nc1cc(CO[C@@H]2O[C@H](CI)[C@@H](O[C@H]3O[C@@H]4COC(c5ccccc5)O[C@H]4[C@H](OC(C)=O)[C@H]3OC(C)=O)[C@H](OC(C)=O)[C@H]2OC(C)=O)ccc1Cl (stereo partly drawn) [Example 4, N-{5-[(2,2',3,3'-Tetra-O-acetyl-4',6',-O-benzylidene-6-deoxy-6-iodo-β-D-maltosyl)-oxy-methyl]-2-chloro-phenyl}-acetamide] | 200 | –
5 | CC(=O)Nc1cc(CO[C@@H]2O[C@H](CI)[C@@H](O[C@H]3O[C@@H]4COC(c5ccccc5)O[C@H]4[C@H](O)[C@H]3O)[C@H](O)[C@H]2O)ccc1Cl (stereo partly drawn) [Example 5, N-{5-[(4',6',-O-Benzylidene-6-deoxy-6-iodo-β-D-maltosyl)-oxy-methyl]-2-chloro-phenyl}-acetamide] | 1160 | –
6 | CC(=O)Nc1cc(CO[C@@H]2O[C@H](CN3C(=O)c4ccccc4C3=O)[C@@H](O[C@H]3O[C@@H]4COC(c5ccccc5)O[C@H]4[C@H](OC(C)=O)[C@H]3OC(C)=O)[C@H](OC(C)=O)[C@H]2OC(C)=O)ccc1Cl (stereo partly drawn) [Example 6, N-(5-{[2,2',3,3'-Tetra-O-acetyl-4',6'-O-benzylidene-6-deoxy-6-(1,3-dioxo-1,3-dihydro-isoindol-2-yl)-β-D-maltosyl]-oxy-methyl}2-chloro-phenyl)-acetamide] | 840 | –
7 | CC(=O)Nc1cc(CO[C@@H]2O[C@H](CN3C(=O)c4ccccc4C3=O)[C@@H](O[C@H]3O[C@@H]4COC(c5ccccc5)O[C@H]4[C@H](O)[C@H]3O)[C@H](O)[C@H]2O)ccc1Cl (stereo partly drawn) [Example 7, N-(5-{[4',6'-O-Benzylidene-6-deoxy-6-(1,3-dioxo-1,3-dihydro-isoindol-2-yl)-β-D-maltosyl]-oxy-methyl}-2-chloro-phenyl)-acetamide] | 1590 | –
8 | CC(=O)Nc1cc(CO[C@@H]2O[C@H](CN=[N+]=[N-])[C@@H](O[C@H]3O[C@@H]4COC(c5ccccc5)O[C@H]4[C@H](O)[C@H]3O)[C@H](O)[C@H]2O)ccc1Cl (stereo partly drawn) [Example 8, N-{5-[(6-Deoxy-6-azido-4',6'-O-benzylidene-β-D-maltosyl)-oxy-methyl]-2-chloro-phenyl}-acetamide] | 614 | –
9 | heparan sulfate | – | endothelial cell growth (endothelial cell): able to promote endothelial cell growth; inhibition of SMC proliferation (smooth muscle cell (SMC)): endogenous inhibitors of SMC proliferation
10 | heparin | – | endothelial cell growth (endothelial cell): able to promote endothelial cell growth; inhibition of SMC proliferation (smooth muscle cell (SMC)): endogenous inhibitors of SMC proliferation
11 | β-cyclodextrin tetradecasulfate | – | inhibition of SMC proliferation (smooth muscle cell (SMC)): smooth muscle cell proliferation inhibitor; inhibition of restenosis [2]: effective inhibitor of restenosis
